Experiments:
[1] = test system: A. baumannii (ATCC 17978); experiment: Checkerboard potentiation assay with novobiocin; assay type: cell-based
Procedure: Bacterial strains and culture conditions. The following bacterial strains were used within this study; A. baumannii (ATCC 17978), K. pneumoniae (ATCC 43816), K. pneumoniae (ATCC 43816, expressing pGDP2:mcr-1), P. aeruginosa (PA01). Bacterial growth was in cation-adjusted Mueller-Hinton broth (MHB) at 37° C., and inoculum was prepared according to CLSI protocol (CLSI 2015).
Potentiation assays. Checkerboard analyses were conducted with each drug serially diluted at eight concentrations to create an 8×8 matrix. At least two biological replicates were done for each combination, and the means were used for FIC calculation. The FIC for each drug was calculated by dividing the concentration of the drug in the presence of codrug in a combination for a well showing <10% growth by the MIC for that drug alone. The FIC index (FICI) is the sum of the two FICs, with an FIC index≤0.5 deemed synergistic.

A. baumannii ATCC 17978 = experiment: Systemic A. baumannii murine infection model; assay type: in vivo, mouse
Procedure: Mouse infection models. Animal experiments were conducted according to guidelines set by the Canadian Council on Animal Care using protocols approved by the Animal Review Ethics Board at McMaster University under Animal Use Protocol #20-12-43. Before infection, mice were relocated at random from a housing cage to treatment or control cages. No animals were excluded from analyses, and blinding was considered unnecessary. Seven- to nine-week-old female C57BL/6 mice (Charles River) were infected intraperitoneally with ˜2×10^6 CFU of A. baumannii ATCC 17978, with 5% porcine mucin (Sigma-Aldrich). Infections were allowed to establish for 2 h, and treatments were administered intraperitoneally. For the survival study, the clinical endpoint was determined using a five-point body condition score analyzing weight loss, decrease in body temperature, respiratory distress, hampered mobility and hunched posture. Experimental endpoint was defined as five days post-infection for mice not reaching clinical endpoint. For CFU/mL enumeration, animals were infected as described above and euthanized 6 h post-infection, and blood was collected into sterile 2 ml heparinized tubes (BD Scientific) serially diluted in PBS and plated onto solid LB. Plates were incubated overnight at 37° C., and colonies were quantified to determine bacterial load.
This was directly compared to the activity of P35 and P36 in this model (all administered at 10 mg/kg) in combination with novobiocin (50 mg/kg).
For this experiment the same A. baumannii infection model was used, however, endpoint was defined as 6 h post-infection, at which point blood was collected for CFU/mL enumeration (FIG. 2b).

With `N=C(N)c1ccc(OCCN(CCOc2ccc(C(=N)N)cc2)c2ccccc2)cc1` [Analog P35] the “FICI with novobiocin in presence of 20 mM Mg2+” value ([1]; 20 mM Mg2+ added to growth media) was 0.56, the “FICI AB” value ([1]; with novobiocin) was 0.094 and the “Reduction in blood CFU/mL in combination with novobiocin” value (A. baumannii ATCC 17978; 10 mg/kg + 50 mg/kg novobiocin, 6 h post-infection) was 3.05 log10. The “Animals rescued in combination with novobiocin” value (A. baumannii ATCC 17978; 10 mg/kg analog + 50 mg/kg novobiocin i.p. 2 h post-infection, endpoint 5 days) was 100% and the “Impact on blood CFU/mL, treatment alone” value (A. baumannii ATCC 17978; alone, 6 h post-infection, compared to control-treated animals) was “no significant impact”.
